Data from patent US20240400542A1 (University of Virginia Patent Foundation, priority 2021, published 2024).

Legend:
Experiment in all cases: SILAC competitive chemical proteomic assay (TH211 probe, LC-MS/MS)
[1] = tested on: Heat shock protein HSP 90-beta; type: cell-based, human; conditions: TH207 inhibitor; HEK293T soluble fraction; tyrosine 61
Method: (§1) The light and heavy proteomes (2.3 mg/mL, 432 μL) prepared from HEK293T cells that were pretreated in situ with vehicle (DMSO) or the inhibitor (2 μM), respectively, at 37° C. for 1 hr followed by probe TH211 treatment (50 μM) for 2 h, were directly were subjected to click reaction with the desthiobiotin-PEG3-azide (10 mM in DMSO, 10 μL, final concentration 200 μM) in the presence of TCEP (50 mM, 10 μL), TBTA (1.7 mM, 33 μL) and CuSO4 (50 mM, 10 μL) at room temperature for 1 hr. The light and the heavy samples were mixed in the chloroform-methanol extraction step. The subsequent steps including reduction with dithiothreitol, alkylation with iodoacetamide, digestion with Trypsin/Lys-C, enrichment with avidin beads were conducted as previously described^26.

Perilipin-2 = target: T1, Perilipin-2 (Homo sapiens, UniProt Q99541); type: cell-based; conditions: TH207 inhibitor; HEK293T soluble fraction; Q99541.2 tyrosine 190
T1 construct: endogenous in cells; host or cells: HEK293T
T1 sequence (Q99541 1-437): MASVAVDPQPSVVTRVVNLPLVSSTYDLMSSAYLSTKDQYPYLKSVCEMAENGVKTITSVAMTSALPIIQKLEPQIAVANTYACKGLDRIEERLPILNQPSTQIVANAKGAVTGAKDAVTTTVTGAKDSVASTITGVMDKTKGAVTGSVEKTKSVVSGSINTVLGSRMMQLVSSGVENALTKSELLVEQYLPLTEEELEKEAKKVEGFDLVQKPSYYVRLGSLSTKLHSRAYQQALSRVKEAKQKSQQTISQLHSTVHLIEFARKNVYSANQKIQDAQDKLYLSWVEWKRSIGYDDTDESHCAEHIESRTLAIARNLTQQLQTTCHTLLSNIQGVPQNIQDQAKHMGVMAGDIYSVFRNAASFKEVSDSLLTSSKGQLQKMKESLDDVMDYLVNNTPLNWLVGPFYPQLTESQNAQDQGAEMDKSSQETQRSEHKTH
Method: as §1

Major capsid protein VP1 = type: cell-based; conditions: TH207 inhibitor; HEK293T soluble fraction; Q98WD1 lysine 235
Method: as §1

Alpha-enolase = target: T2, Alpha-enolase (Homo sapiens, UniProt P06733); type: cell-based; conditions: TH207 inhibitor; HEK293T soluble fraction; P06733.2 lysine 80
T2 construct: endogenous in cells; host or cells: HEK293T
T2 sequence (P06733 whole entry): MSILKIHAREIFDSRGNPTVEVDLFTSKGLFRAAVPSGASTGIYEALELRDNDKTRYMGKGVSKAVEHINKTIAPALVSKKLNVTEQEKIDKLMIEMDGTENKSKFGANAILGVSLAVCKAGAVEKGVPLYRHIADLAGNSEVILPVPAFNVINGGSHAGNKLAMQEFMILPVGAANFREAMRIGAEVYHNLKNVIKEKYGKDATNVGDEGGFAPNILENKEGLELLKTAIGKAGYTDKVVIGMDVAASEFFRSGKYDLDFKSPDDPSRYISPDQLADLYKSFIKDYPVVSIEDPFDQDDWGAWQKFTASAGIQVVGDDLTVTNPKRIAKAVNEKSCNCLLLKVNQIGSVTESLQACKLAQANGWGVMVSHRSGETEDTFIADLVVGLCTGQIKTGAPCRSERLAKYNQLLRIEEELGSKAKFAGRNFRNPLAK
Method: as §1

[2] = target: T3, Inosine-5′-monophosphate dehydrogenase 2 (Homo sapiens, UniProt P12268); type: cell-based; conditions: TH207 inhibitor; HEK293T soluble fraction; P12268.2 tyrosine 509
T3 construct: endogenous in cells; host or cells: HEK293T
T3 sequence (P12268 2-514 limits assumed): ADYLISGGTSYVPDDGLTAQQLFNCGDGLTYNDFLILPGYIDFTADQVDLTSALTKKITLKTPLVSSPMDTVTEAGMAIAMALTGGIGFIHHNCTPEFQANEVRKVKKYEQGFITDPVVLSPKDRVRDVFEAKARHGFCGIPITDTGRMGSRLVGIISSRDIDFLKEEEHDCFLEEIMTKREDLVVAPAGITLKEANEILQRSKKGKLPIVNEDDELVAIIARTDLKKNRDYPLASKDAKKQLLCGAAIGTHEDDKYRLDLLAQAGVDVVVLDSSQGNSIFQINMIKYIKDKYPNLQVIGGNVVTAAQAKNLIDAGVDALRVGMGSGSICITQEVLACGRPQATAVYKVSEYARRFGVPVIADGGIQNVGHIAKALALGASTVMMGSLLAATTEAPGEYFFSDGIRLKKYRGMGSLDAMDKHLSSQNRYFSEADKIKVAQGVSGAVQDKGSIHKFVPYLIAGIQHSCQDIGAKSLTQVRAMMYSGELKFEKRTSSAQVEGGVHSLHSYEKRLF
Method: as §1

dCTP pyrophosphatase 1 = target: T4, dCTP pyrophosphatase 1 (Homo sapiens, UniProt Q9H773); type: cell-based; conditions: TH207 inhibitor; HEK293T soluble fraction; Q9H773.1 tyrosine 129
T4 construct: endogenous in cells; host or cells: HEK293T
T4 sequence (Q9H773 1-170): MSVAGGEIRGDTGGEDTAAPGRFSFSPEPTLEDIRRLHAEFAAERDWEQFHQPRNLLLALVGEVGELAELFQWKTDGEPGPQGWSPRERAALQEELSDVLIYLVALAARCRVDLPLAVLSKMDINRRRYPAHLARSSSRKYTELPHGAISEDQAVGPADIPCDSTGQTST
Method: as §1

PFKL = target: T5, PFKL (Homo sapiens, UniProt P17858); type: cell-based
T5 construct: endogenous in cells; host or cells: HEK293T
T5 sequence (P17858 1-780): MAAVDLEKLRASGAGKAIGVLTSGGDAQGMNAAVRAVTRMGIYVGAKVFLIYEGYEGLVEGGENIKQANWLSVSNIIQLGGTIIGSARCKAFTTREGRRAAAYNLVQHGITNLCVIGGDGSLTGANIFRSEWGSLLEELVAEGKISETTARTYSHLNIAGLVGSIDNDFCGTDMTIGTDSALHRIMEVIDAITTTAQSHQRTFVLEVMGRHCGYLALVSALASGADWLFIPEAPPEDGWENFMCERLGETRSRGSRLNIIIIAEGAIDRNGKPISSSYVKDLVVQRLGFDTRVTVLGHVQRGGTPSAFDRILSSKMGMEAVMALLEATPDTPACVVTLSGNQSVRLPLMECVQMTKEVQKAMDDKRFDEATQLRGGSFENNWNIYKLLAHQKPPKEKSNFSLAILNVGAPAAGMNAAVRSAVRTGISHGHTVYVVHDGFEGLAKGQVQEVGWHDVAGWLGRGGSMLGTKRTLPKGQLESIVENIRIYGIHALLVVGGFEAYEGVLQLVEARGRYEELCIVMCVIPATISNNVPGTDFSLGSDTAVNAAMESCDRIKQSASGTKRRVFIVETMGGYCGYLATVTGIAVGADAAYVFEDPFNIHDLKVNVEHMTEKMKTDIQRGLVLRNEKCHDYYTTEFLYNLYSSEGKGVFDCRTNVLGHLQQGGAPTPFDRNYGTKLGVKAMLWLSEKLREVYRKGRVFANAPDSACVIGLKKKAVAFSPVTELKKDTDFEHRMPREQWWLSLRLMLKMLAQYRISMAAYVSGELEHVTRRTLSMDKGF
Method: as §1
Some SuTEx analogues with RF001 fragment were synthesized and characterized. The in situ competition assay was then conducted, during which HEK293T cells were treated with 1 μM of a SuTEx analogue for 1 h, followed by treatment with 25 μM of TH211 as the probe for 2 h. […] The analogues with electron-donating groups like methyl or methoxy on the para position of phenyl performed better than those with electron-withdrawing groups. Under the same condition, the IC5o of TH220 was determined as 305.6 nM. The identity of the bound protein was studied by LC-MS/MS. The assay results indicated PFKL as the potential target and that binding sites include Y674 and K677, since the ratio trends are the same as that found in the in situ competition assay. To study selective targeting of PFKL by the series of SuTEx analogues, Fag-PFKL, Flag-PFKM, and Flag-PFKP were overexpressed in HEK293T cells and in vitro competition assays were performed for comparison. […] To optimize these SuTEx ligands, another series of derivatives were synthesized and evaluated with TH233 as a negative control and TH220 as positive control, respectively. […] Compared to TH220, the probinding activity of XJ-2-103 with trifluoromethyl group at para position of the phenyl ring is not as good, which is consistent with the results shown in FIG. 18A.

## Cc1ccc(S(=O)(=O)n2cc(CCN3CCC(=C(c4ccc(F)cc4)c4ccc(F)cc4)CC3)nn2)cc1 [TH207, 4-(Bis(4-fluorophenyl)methylene)-1-(2-(1-tosyl-1H-1,2,3-triazol-4-yl)ethyl)piperidine]
[1]
  Normalized SILAC ratio (SR), Heat shock protein HSP 90-beta Y61: 1.5
Perilipin-2
  Normalized SILAC ratio (SR), Perilipin-2 Y190: 3.5
Major capsid protein VP1
  Normalized SILAC ratio (SR), Major capsid protein VP1 K235: 1.3
Alpha-enolase
  Normalized SILAC ratio (SR), Alpha-enolase K80: 1.6
[2]
  Normalized SILAC ratio (SR), Inosine-5′-monophosphate dehydrogenase 2 Y509: 1.6
dCTP pyrophosphatase 1
  Normalized SILAC ratio (SR), dCTP pyrophosphatase 1 Y129: 3
PFKL; HEK293T in situ, vehicle (light) vs inhibitor 2 μM (heavy) 1 hr, then TH211 50 μM 2 h, protein/site not given
  SILAC ratios (SR) from competitive chemical proteomic assay: 3.41
PFKL; TH207 inhibitor, HEK293T soluble fraction, P17858.6 lysine 677
  Normalized SILAC ratio (SR), PFKL K677: 2.7
PFKL; TH207 inhibitor, HEK293T soluble fraction, P17858.6 tyrosine 674
  Normalized SILAC ratio (SR), PFKL Y674: 2.7
